{"source": "patent US6939561B2", "about": "“Methods and compositions for polyene antibiotics with reduced toxicity” (Wisconsin Alumni Research Foundation, priority 2001, dated 2005)", "key": {"Aspergillus fumigatus": {"test_system": "Aspergillus fumigatus", "test": "Minimal inhibitory concentration (MIC) of AmB, microwell dilution", "type": "cell-based", "conditions": "35° C., 24 hr", "experimental": "(§1) AmB in PEO-b-PHSA micelles was dissolved in isotonic sodium chloride solution giving an AmB level of 200 μg/ml. AmB was dissolved in DMSO and diluted further with the isotonic sodium chloride solution to give the same concentration. The level of DMSO in the final solution was <1% v/v. Samples of PEO-b-PHSA micelles in sodium chloride solution were also used as controls. Solutions of 20 μl from these samples were diluted with the culture medium (RPMI 1640) (80 μl) in the first microwell. The next 11 microwells had serial two-fold diluted solutions. To each microwell, 100 μl of the inoculum containing 5×10^3 CFU/ml of fungal pathogen (Candida albicans, Aspergillus fumigatus or Cryptococcus neoformans) in culture medium was added, giving a total volume of 200 μl per well. Microwell containers were incubated at 35° C. for 24 hr. Organism and medium controls were performed simultaneously to check the growth of organisms and sterility of culture medium, respectively. […] All tests were repeated three times."}, "Candida albicans": {"test_system": "Candida albicans", "test": "Minimal inhibitory concentration (MIC) of AmB, microwell dilution", "type": "cell-based", "conditions": "35° C., 24 hr", "experimental": "as §1"}, "Cryptococcus neoformans": {"test_system": "Cryptococcus neoformans", "test": "Minimal inhibitory concentration (MIC) of AmB, microwell dilution", "type": "cell-based", "conditions": "35° C., 24 hr", "experimental": "as §1"}, "[1]": {"test": "UV/VIS spectroscopy, I/IV ratio (self-aggregation state of AmB)", "type": "physicochemical", "conditions": "intensity at 348 nm to 409 nm, 4 μg/ml AmB, PBS pH 7.4", "experimental": "Freeze-dried samples of AmB in PEO-b-PHSA micelles with 11 and 70% stearate substitution were dissolved in PBS, pH=7.4, at 4 μg/ml of AmB. DMSO was used to solubilize AmB in PBS, pH=7.4, at a similar concentration. The level of DMSO in the final sample was <1% (v/v). The UV/VIS spectra of AmB in different samples were recorded from 300 nm to 450 nm."}, "human red blood cells": {"test_system": "human red blood cells", "test": "Hemolytic activity of AmB toward human red blood cells", "type": "cell-based", "conditions": "human RBCs, 37° C., 30 min", "experimental": "Human blood was collected and centrifuged (2000 rpm). The supernatant and buffy coat were pipetted off and the red blood cells (RBCs) were diluted with an isotonic phosphate buffer, pH 7.4. The proper dilution factor was estimated from the UV/VIS absorbance of hemoglobin at 576 nm in the supernatant after RBCs were lysed by 20 μg/ml of AmB. A properly diluted sample of RBCs gives an absorbance of 0.4-0.5. Solutions of diluted RBCs (2.5 ml) with varied levels of AmB in different samples were incubated at 37° C. for 30 min. Samples were then placed in ice to stop hemolysis. The unlysed RBCs were removed by centrifugation at 14,000 rpm (about 7000×g) for 20 sec. The supernatant was collected and analyzed for hemoglobin by UV/VIS spectroscopy at 576 nm. The percent of hemolyzed RBCs was determined using this equation: % hemolysis=100(Abs−Abso)/(Abs100−Abso), where Abs, Abso and Abs100 are the absorbance for the sample, control with no AmB and control in the presence of 20 μg/ml AmB, respectively."}}}
{"smiles": "C[C@@H]1[C@H](O)[C@@H](C)/C=C/C=C/C=C/C=C/C=C/C=C/C=C/[C@H](O[C@@H]2O[C@H](C)[C@@H](O)[C@H](N)[C@@H]2O)C[C@@H]2O[C@](O)(C[C@@H](O)C[C@@H](O)[C@H](O)CC[C@@H](O)C[C@@H](O)CC(=O)O[C@H]1C)C[C@H](O)[C@H]2C(=O)O", "note": "[AmB, Amphotericin B]", "values": [{"measurement": "MIC, AmB level inhibiting growth of A. fumigatus", "setting": "Aspergillus fumigatus", "result": 0.45, "unit": "µg/mL"}, {"measurement": "MIC, AmB level inhibiting growth of C. albicans", "setting": "Candida albicans", "result": 0.3, "unit": "µg/mL"}, {"measurement": "MIC, AmB level inhibiting growth of C. neoformans", "setting": "Cryptococcus neoformans", "result": 0.3, "unit": "µg/mL"}, {"measurement": "I/IV ratio", "setting": "[1]", "result": "about 1.2"}, {"measurement": "AmB level causing 100% hemolysis", "setting": "human red blood cells", "result": "about 1 μg/ml"}]}
